# Experimental data from patent US20230097883A1, “ERGOTHIONEINE PET COMPOUNDS AND METHODS OF USE THEREOF” (VANDERBILT UNIVERSITY, priority 2021, published 2023).
# System: oxidative stress
# Assay: PET imaging of LPS-induced neuroinflammation with [11C]ERGO radioligand, with Tempol blocking
# Type: in vivo, mouse
# Details: LPS-treated WT mice, Tempol 0.2 mg/mL prior to [11C]ERGO
# Procedure: The mice were injected with ˜20 MBq/0.1 ml 11C-ERGO via the tail vein and returned to their cages for 10 min. Then they were anesthetized with 2% isofluorane and imaged in an Inveon microPET (Siemens Pre-clinical, Knoxville, Tenn., USA) for 30 min in static mode followed by a CT scan using a NanoSPECT/CT (Mediso, Wash. D.C.) at an x-ray beam intensity of […] and x-ray voltage of 45 kVp. PET images were reconstructed using the iterative MAP reconstruction algorithm with 18 iterations and a beta smoothing value of 0.001 into 128×128×95 slices with a voxel size of 0.388 mm×0.388 mm×0.796 mm. The CT images were reconstructed into 170×170×126 slices at a voxel size of 0.4×0.4×0.4 mm^3. The PET and CT images were co-registered using the imaging tool AMIDE.
# The mouse model of LPS-induced neuroinflammation was developed based on past reports. The LPS derived from Escherichia coli […] (Sigma Aldrich, St Louis, Mo.) was formulated in sterilized dd. water and given a high dose of LPS formulation (5 mg/Kg) through intraperitoneal injection 24 h before PET imaging. This high dose would result in approximately 12-13% body weight loss over the course of 24 h. After PET imaging, animals were sacrificed, and the brains were collected for histology analysis.
# The reported LPS mouse model of neuroinflammation in the past was reproduced for the validation of the specificity of the probe. […]
structure (smiles),measurement,value
"CC1(C)CC(O)CC(C)(C)N1[O] [Tempol, 4-hydroxy-2,2,6,6-tetramethyl piperidinoxyl, reference compound]",[11C]ERGO PET signal in brain of LPS-treated mice after co-injection with excess Tempol (blocking),significant reduction of the PET signal
